≈ marks a conversion by molar mass, not a printed value.
Tests used:
[1] = test system: Septoria tritici (ATCC 26517); assay: Minimum Inhibitory Concentration (MIC) vs. Septoria tritici; type: cell-based; conditions: Zymoseptoria tritici, ATCC26517, 168 h; 50% reduction in growth of S. tritici; 22° C., seven days; read-out: Septoria Rating (MIC)
Protocol: C. Minimum Inhibitory Concentration (MIC) vs. Septoria tritici Compounds were assessed for their ability to inhibit the growth of a common strain of the fungal plant pathogen Septoria tritici (ATCC 26517) using a procedure based on a Clinical and Laboratory Standards Institute (CLSI) microdilution assay protocol for filamentous fungi. Stock solutions of the test compounds and standards were prepared in DMSO at 6400 μg/mL. Each stock solution was used to prepare a 2-fold dilution series ranging from 16 to 0.016 μg/mL (total of 11 compound concentrations) in RPMI-1640 (Roswell Park Memorial Institute) medium containing 3-(N-morpholino)propanesulfonic acid (MOPS) buffer and 2% DMSO. A 100 μL aliquot of the dilutions was added to columns 1 (16 μg/mL compound) through 11 (0.016 μg/mL compound) of a 96-well microtiter plate. This format was replicated in a second row of the microtiter plate. Thus, each microtiter plate could include 11 concentrations of four test or control compounds replicated twice. A 100 μL aliquot of RPMI-1640/MOPS/2% DMSO medium was added to column 12 (no compound control) of the microtiter plate. A fresh culture of S. tritici was used to prepare a solution of approximately 5×10^4 colony-forming units per milliliter (cfu/mL) in RPMI/MOPS medium without DMSO. A 100 μL aliquot of this solution was added to all 96 wells in the microtiter plate. […] The assay plates were incubated at 22° C. for seven days in the dark without shaking. […] In each case of Table 3, the Septoria rating scale is as follows: […]

[2] = test system: Puccinia recondita tritici = Puccinia triticina; assay: Fungicidal activity vs. leaf rust on wheat plants; type: in vivo; conditions: 50 ppm spray on wheat (Yuma), inoculated the following day, evaluated 7-9 days later; read-out: Puccinia Rating (% Disease Control @ 50 ppm)
Description: D. Evaluation of Fungicidal Activity Vs. Leaf Rust (Causal Agent Puccinia recondita Tritici=Puccinia triticina; Bayer code PUCCRT). […] Each pot contained 3-8 seedlings. These plants were sprayed until wet with the formulated test compounds. The compounds were formulated at 50 ppm in 10 vol. % acetone plus 90 vol. % Triton X water (deionized water 99.99 wt %+0.01 wt % Triton X100), giving a “formulated test compound.” Formulated test compounds were applied to plants using a turn table sprayer fitted with two opposing air atomization nozzles which delivered approximately 1500 L/ha of spray volume. On the following day, the leaves were inoculated with an aqueous spore suspension of Puccinia recondita tritici and the plants were kept in high humidity overnight to permit spores to germinate and infect the leaf. The plants were then transferred to a greenhouse until disease developed on untreated control plants. Disease severity was evaluated 7-9 days later, depending on the speed of disease development. In each case of Table 3, the Puccinia rating scale is as follows: […]

MIC [1] | Structure (SMILES) | pest or weed control at 50 ppm [2]
≤ 0.5 µg/mL | OC(Cn1cnnn1)(c1ccc(F)cc1F)C(F)(F)c1ccc(OCc2ccc(Cl)cc2F)cn1 (stereo not drawn) [Compound 1, 1-(5-(4-Chloro-2-fluorobenzyloxy)pyridin-2-yl)-2-(2,4-difluorophenyl)-1,1-difluoro-3-(1H-tetrazol-1-yl)propan-2-ol] | 80 to 100%
≤ 0.5 µg/mL | N#Cc1ccc(COc2ccc(C(F)(F)C(O)(Cn3cnnn3)c3ccc(F)cc3F)nc2)cc1 (stereo not drawn) [Compound 9, 4-(((6-(2-(2,4-Difluorophenyl)-1,1-difluoro-2-hydroxy-3-(1H-tetrazol-1-yl)propyl)pyridin-3-yl)oxy)methyl)benzonitrile] | 80 to 100%
≤ 0.5 µg/mL | OC(Cn1cnnn1)(c1ccc(F)cc1F)C(F)(F)c1ccc(Oc2ccc(Br)cn2)cn1 (stereo not drawn) [Compound 106, 1-(5-((5-bromopyridin-2-yl)oxy)pyridin-2-yl)-2-(2,4-difluorophenyl)-1,1-difluoro-3-(1H-tetrazol-1-yl)propan-2-ol] | 80 to 100%
≤ 0.5 µg/mL | OC(Cn1cnnn1)(c1ccc(F)cc1F)C(F)(F)c1ccc(OCc2ccc(Cl)nc2)cn1 (stereo not drawn) [Compound 116, 1-(5-((6-chloropyridin-3-yl)methoxy)pyridin-2-yl)-2-(2,4-difluorophenyl)-1,1-difluoro-3-(1H-tetrazol-1-yl)propan-2-ol] | 80 to 100%
≤ 0.5 µg/mL | OC(Cn1cnnn1)(c1ccc(F)cc1F)C(F)(F)c1ccc(OCc2ccncc2)cn1 (stereo not drawn) [Compound 118, 2-(2,4-difluorophenyl)-1,1-difluoro-1-(5-(pyridin-4-ylmethoxy)pyridin-2-yl)-3-(1H-tetrazol-1-yl)propan-2-ol] | < 40%
≤ 0.5 µg/mL | OC(Cn1cnnn1)(c1ccc(F)cc1F)C(F)(F)c1ccc(OCc2ccc(OC(F)(F)F)cc2)cn1 (stereo not drawn) [Compound 21, 2-(2,4-Difluorophenyl)-1,1-difluoro-3-(1H-tetrazol-1-yl)-1-(5-((4-(trifluoromethoxy)benzyl)oxy)pyridin-2-yl)propan-2-ol] | 80 to 100%
≤ 0.5 µg/mL | N#Cc1cc(COc2ccc(C(F)(F)C(O)(Cn3cnnn3)c3ccc(F)cc3F)nc2)ccc1F (stereo not drawn) [Compound 65, 5-(((6-(2-(2,4-Difluorophenyl)-1,1-difluoro-2-hydroxy-3-(1H-tetrazol-1-yl)propyl)pyridin-3-yl)oxy)methyl)-2-fluorobenzonitrile] | 80 to 100%
0.5 to 1.5 µg/mL (≈ 1.09 to 3.26 µM) | OC(Cn1cnnn1)(c1ccc(F)cc1F)C(F)(F)c1ccc(OCc2ccccn2)cn1 (stereo not drawn) [Compound 37, 2-(2,4-Difluorophenyl)-1,1-difluoro-1-(5-(pyridin-2-ylmethoxy)pyridin-2-yl)-3-(1H-tetrazol-1-yl)propan-2-ol] | 80 to 100%
≤ 0.5 µg/mL | CO/N=C/c1ccc(Oc2ccc(C(F)(F)C(O)(Cn3cnnn3)c3ccc(F)cc3F)nc2)nc1 (stereo not drawn) [Compound 102, (E)-6-((6-(2-(2,4-difluorophenyl)-1,1-difluoro-2-hydroxy-3-(1H-tetrazol-1-yl)propyl)pyridin-3-yl)oxy)nicotinaldehyde O-methyl oxime] | 80 to 100%
≤ 0.5 µg/mL | OC(Cn1cnnn1)(c1ccc(F)cc1F)C(F)(F)c1ccc(Oc2ccc(OC(F)(F)F)cc2)cn1 (stereo not drawn) [Compound 76, 2-(2,4-Difluorophenyl)-1,1-difluoro-3-(1H-tetrazol-1-yl)-1-(5-(4-(trifluoromethoxy)phenoxy)pyridin-2-yl)propan-2-ol] | 80 to 100%
≤ 0.5 µg/mL | OC(Cn1cnnn1)(c1ccc(F)cc1F)C(F)(F)c1ccc(Oc2cccc(Cl)c2)cn1 (stereo not drawn) [Compound 84, 1-(5-(3-Chlorophenoxy)pyridin-2-yl)-2-(2,4-difluorophenyl)-1,1-difluoro-3-(1H-tetrazol-1-yl)propan-2-ol] | 80 to 100%
≤ 0.5 µg/mL | CC(Oc1ccc(C(F)(F)C(O)(Cn2cnnn2)c2ccc(F)cc2F)nc1)C(F)(F)F (stereo not drawn) [Compound 47, 2-(2,4-Difluorophenyl)-1,1-difluoro-3-(1H-tetrazol-1-yl)-1-(5-((1,1,1-trifluoropropan-2-yl)oxy)pyridin-2-yl)propan-2-ol] | 80 to 100%
≤ 0.5 µg/mL | N#Cc1ccc(F)c(COc2ccc(C(F)(F)C(O)(Cn3cnnn3)c3ccc(F)cc3F)nc2)c1 (stereo not drawn) [Compound 59, 3-(((6-(2-(2,4-Difluorophenyl)-1,1-difluoro-2-hydroxy-3-(1H-tetrazol-1-yl)propyl)pyridin-3-yl)oxy)methyl)-4-fluorobenzonitrile] | 80 to 100%
≤ 0.5 µg/mL | OC(Cn1cnnn1)(c1ccc(F)cc1F)C(F)(F)c1ccc(OCc2cccc(C(F)(F)F)c2)cn1 (stereo not drawn) [Compound 26, 2-(2,4-Difluorophenyl)-1,1-difluoro-3-(1H-tetrazol-1-yl)-1-(5-((3-(trifluoromethyl)benzyl)oxy)pyridin-2-yl)propan-2-ol] | 80 to 100%
≤ 0.5 µg/mL | OC(Cn1cnnn1)(c1ccc(F)cc1F)C(F)(F)c1ccc(Oc2cccc(F)c2)cn1 (stereo not drawn) [Compound 77, 2-(2,4-Difluorophenyl)-1,1-difluoro-1-(5-(3-fluorophenoxy)pyridin-2-yl)-3-(1H-tetrazol-1-yl)propan-2-ol] | 60 to 79%
≤ 0.5 µg/mL | OC(Cn1cnnn1)(c1ccc(F)cc1F)C(F)(F)c1ccc(OCc2ccc(C(F)(F)F)cc2)cn1 (stereo not drawn) [Compound 22, 2-(2,4-Difluorophenyl)-1,1-difluoro-3-(1H-tetrazol-1-yl)-1-(5-((4-(trifluoromethyl)benzyl)oxy)pyridin-2-yl)propan-2-ol] | 80 to 100%
≤ 0.5 µg/mL | OC(Cn1cnnn1)(c1ccc(F)cc1F)C(F)(F)c1ccc(OCc2ccc(C(F)(F)F)cc2F)cn1 (stereo not drawn) [Compound 24, 2-(2,4-Difluorophenyl)-1,1-difluoro-1-(5-((2-fluoro-4-(trifluoromethyl)benzyl)oxy)pyridin-2-yl)-3-(1H-tetrazol-1-yl)propan-2-ol] | 80 to 100%
≤ 0.5 µg/mL | N#Cc1ccc(COc2ccc(C(F)(F)C(O)(Cn3cnnn3)c3ccc(F)cc3F)nc2)s1 (stereo not drawn) [Compound 73, 5-(((6-(2-(2,4-Difluorophenyl)-1,1-difluoro-2-hydroxy-3-(1H-tetrazol-1-yl)propyl)pyridin-3-yl)oxy)methyl)thiophene-2-carbonitrile] | 80 to 100%
≤ 0.5 µg/mL | OC(Cn1cnnn1)(c1ccc(F)cc1F)C(F)(F)c1ccc(OCc2ccc(F)c(F)c2)cn1 (stereo not drawn) [Compound 28, 1-(5-((3,4-Difluorobenzyl)oxy)pyridin-2-yl)-2-(2,4-difluorophenyl)-1,1-difluoro-3-(1H-tetrazol-1-yl)propan-2-ol] | 80 to 100%
≤ 0.5 µg/mL | N#Cc1ccc(COc2ccc(C(F)(F)C(O)(Cn3cnnn3)c3ccc(F)cc3F)nc2)cc1F (stereo not drawn) [Compound 10, 4-(((6-(2-(2,4-Difluorophenyl)-1,1-difluoro-2-hydroxy-3-(1H-tetrazol-1-yl)propyl)pyridin-3-yl)oxy)methyl)-2-fluorobenzonitrile] | 80 to 100%
≤ 0.5 µg/mL | OC(Cn1cnnn1)(c1ccc(F)cc1F)C(F)(F)c1ccc(OCC(F)c2ccc(OC(F)F)cc2)cn1 (stereo not drawn) [Compound 124, 1-(5-(2-(4-(difluoromethoxy)phenyl)-2-fluoroethoxy)pyridin-2-yl)-2-(2,4-difluorophenyl)-1,1-difluoro-3-(1H-tetrazol-1-yl)propan-2-ol] | 80 to 100%
≤ 0.5 µg/mL | COc1cccc(COc2ccc(C(F)(F)C(O)(Cn3cnnn3)c3ccc(F)cc3F)nc2)c1 (stereo not drawn) [Compound 34, 2-(2,4-Difluorophenyl)-1,1-difluoro-1-(5-((3-methoxybenzyl)oxy)pyridin-2-yl)-3-(1H-tetrazol-1-yl)propan-2-ol] | 80 to 100%
≤ 0.5 µg/mL | N#Cc1cccc(COc2ccc(C(F)(F)C(O)(Cn3cnnn3)c3ccc(F)cc3F)nc2)c1 (stereo not drawn) [Compound 52, 3-(((6-(2-(2,4-Difluorophenyl)-1,1-difluoro-2-hydroxy-3-(1H-tetrazol-1-yl)propyl)pyridin-3-yl)oxy)methyl)benzonitrile] | 80 to 100%

Structure (SMILES) | MIC [1] | pest or weed control at 50 ppm [2]
CC(C)COc1ccc(C(F)(F)C(O)(Cn2cnnn2)c2ccc(Cl)cc2F)nc1 (stereo not drawn) [Compound 69, 2-(4-Chloro-2-fluorophenyl)-1,1-difluoro-1-(5-isobutoxypyridin-2-yl)-3-(1H-tetrazol-1-yl)propan-2-ol] | ≤ 0.5 µg/mL | 80 to 100%

Reference: patent publication US8748461B2, “Metalloenzyme inhibitor compounds” (Viamet Pharmaceuticals, Inc., priority 2011, dated 2014)
